Here are results for two compounds from patent publication US10618939B2, “Hydrocarbon-stapled polypeptides for enhancement of endosome-lysosomal degradation” (The Hong Kong Polytechnic University, priority 2016, dated 2020).

Entries after “also recorded” stand apart in the source; their conditions may differ. Bridge positions count the residues as written; N and C are the ends. Square brackets hold non-standard residues; d marks the D form. Ends that are not written are not given here. Peptide text beside a SMILES is read from it. R8 = C=CCCCCCC[C@@](C)(N)C(=O)O; S5 = C=CCCC[C@](C)(N)C(=O)O

Assay [1] has as its system GFP-tagged Beclin 1 in A549 cell. Description: Confocal colocalization with GFP-Beclin 1 in A549 cells. The assay is classed as cell-based. The following applies: A549 cells transiently expressing GFP-Beclin 1, 20 μM, 30 minutes. On the procedure:
A549 cells transiently expressing GFP-Beclin 1 were treated with 20 μM Rhodamine-SP4 (SEQ ID NO: 4) for 30 minutes and observed under a confocal microscope.

Another assay deals with EGFR in HEK293T cells. Description: EGFR degradation assay in HEK293T cells. The assay is classed as cell-based. The procedure: (§1) HEK293T or A549 cells in 6-well plate were washed with PBS two times and serum-starved overnight in DMEM. EGFR endocytosis was induced by incubation with DMEM medium (with 20 mM HEPES and 0.2% BSA) containing 200 ng/mL of EGF (Invitrogen). Cells were collected at each time point after EGF stimulation and lysed in Laemmli sample buffer (62.5 mM Tris-HCl, pH 6.8, 2% SDS, 25% glycerol, 5% β-mercaptoethanol). 20 μg protein lysate was collected for each time point, analyzed by SDS-PAGE and immunoblotted with anti-EGFR antibody (1:2000, Santa Cruz Biotechnology).

Assay [2] has as its system mutated EGFR in H1975 cell lines. Description: EGFR degradation assay in H1975 cells. The assay is classed as cell-based. Conditions: H1975 NSCLC.
Assay [3] relates to wild type EGFR in A549 cell line. In words: EGFR degradation assay in A549 cells. It counts as cell-based. Conditions: A549 NSCLC. The procedure:
as §1

Assay [4] has as its target T1, Beclin 1 coiled coil domain (Rattus norvegicus, UniProt Q91XJ1).
T1 construct: thioredoxin-6xHis fusion (3C protease site) (cleaved yes); made in house; host or cells: Escherichia coli BL21 (DE3)
In words: Light Scattering (LS) profile, dimer-to-monomer transition of Beclin 1 coiled coil domain. The assay is classed as biochemical. The text has this: Tat sequence (SEQ ID NO: 13: YGRKKRRQRRR) was linked in front of all peptides except the rhodamine B labeled one to enhance cell permeability. The computationally optimized stapled peptide SP4 (SEQ ID NO: 4) was chosen and synthesized by a commercial vendor following the synthetic method pioneered by Kim et. al. (Kim, Grossmann et al. 2011) (FIG. 1C). The purified product was confirmed by mass spectroscopy and HPLC. The importance of the hydrocarbon staple in maintaining the α-helical structure of the designed peptide was confirmed by circular dichroism (CD) measurements (FIG. 1D). […] The Light Scattering (LS) profile of Beclin 1 coiled coil domain in absence of SP4 (SEQ ID NO: 4) indicates a homodimer with predicted molecular weight of 24.8 kDa.

Another assay relates to HEK293T cells. Description: LC3 lipidation western blot in HEK293T cells. The assay is classed as cell-based. The following applies: 10 μM and 20 μM, absence or presence of chloroquine (50 μM). The procedure: Transient DNA transfection was performed using Lipofectamine 2000 (Invitrogen). For Co-IP experiment to measure interaction between UVRAG and endogenous Beclin 1, FLAG-tagged UVRAG plasmids were transfected into HEK293T cells. […] For immunoblotting assay of LC3-II, p62 and EGFR degradation, FLAG-tagged UVRAG mutant plasmids were transfected into HEK293T cells, HeLa cell stably expressing GFP-LC3 and A549 NSCLC cells respectively. Cells were lysed in IP buffer (25 mM HEPES PH 7.5, 10 mM MgCl2, 150 mM NaCl, 1 mM EDTA.2Na, 1% Nonidet P-40, 1% Triton X-100 and 2% glycerol) or Laemmli sample buffer (62.5 mM Tris-HCl, pH 6.8, 2% SDS, 25% glycerol, 5% β-mercaptoethanol) with freshly added EDTA-free protease inhibitor cocktail (Roche). Protein lysate was either directly subject to immunoblot assay or Co-IP. For Co-IP, Lysates were incubated with FLAG magnetic beads (Sigma) overnight at 4° C. The beads were washed with 1×IP lysis buffer 5 times and then eluted with 2×SDS sample buffer.

T1 sequence (Q91XJ1 174-266 limits assumed): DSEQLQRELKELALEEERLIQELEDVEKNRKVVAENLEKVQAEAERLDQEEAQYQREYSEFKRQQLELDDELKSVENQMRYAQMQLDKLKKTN

With “Rhodamine-labeled SP4: rhodamine B labeled SP4, without Tat sequence (RLISEL[R8]DREKQR[S5]A; staple 7-14 (inferred); also: rhodamine B label, position not given here)”, the “colocalization with GFP-Beclin 1” value in assay [1] is reported as “colocalizes; also recorded: co-localized well”.

In the case of `CC[C@H](C)[C@H](NC(=O)[C@H](CC(C)C)NC(=O)[C@H](CCCNC(=N)N)NC(C)=O)C(=O)N[C@@H](CO)C(=O)N[C@@H](CCC(=O)O)C(=O)N[C@@H](CC(C)C)C(=O)N[C@]1(C)CCCCCC/C=C/CCC[C@@](C)(C(=O)N[C@@H](C)C(N)=O)NC(=O)[C@H](CCCNC(=N)N)NC(=O)[C@H](CCC(N)=O)NC(=O)[C@H](CCCCN)NC(=O)[C@H](CCC(=O)O)NC(=O)[C@H](CCCNC(=N)N)NC(=O)[C@H](CC(=O)O)NC1=O` [SP4] (Ac-RLISEL[R8]DREKQR[S5]A-NH2; staple (E) 7-14; N-terminus and C-terminus assumed), the EGFR degradation result (in the assay with EGFR in HEK293T cells; in assay [2]; in assay [3]) was “significantly enhanced EGFR degradation” throughout. Moreover, the “dimer-to-monomer transition in Beclin 1 coiled coil domain” value in assay [4] was “can induce dimer-to-monomer transition”. In addition, in the assay with HEK293T cells, the LC3 lipidation result is on record as “enhanced LC3 lipidation in dosage-dependent manner”.
